From patent publication US4252812A, “2-Substituted-trans-5-ar yl-2,3,4,4a,5,9b-hexahydro-1H-pyrido[4,3-b]indoles” (Pfizer Inc., priority 1980, dated 1981)
Counter-ions that a name gives are not always drawn. Like-named read-outs stand apart in the source and are kept apart here.

Legend:
[1] = system: amphetamine-induced symptoms (cage movement) in rats; experiment: Antagonism of amphetamine stereotypy in rats; assay type: in vivo, rat; conditions: for ED50: Rattus norvegicus; for ED50 (micrograms/kilograms) 1 Hr. / ED50 (mg./kg.) 1 Hr.: 60 min; for ED50 (micrograms/kilograms) 5 Hrs. / ED50 (mg./kg.) 5 Hrs.: 300 min; for ED50 (micrograms/kilograms) 24 Hrs. / ED50 (mg./kg.) 24 Hrs.: 1440 min; for ED50 (mg./kg.) 1 Hr. / ED50 (mg./kg.) 5 Hrs. / ED50 (mg./kg.) 24 Hrs. / ED50 (mg./kg.) 48 Hrs. / ED50 (mg./kg.) 72 Hrs.: Part D, enantiomers from Example 21; for ED50 (mg./kg.) 48 Hrs.: 2880 min; for ED50 (mg./kg.) 72 Hrs.: 4320 min
Procedure: Antagonism of Amphetamine Stereotypy in Rats Test Procedures and Results
The effects of the compounds of the present invention on prominent amphetamine-induced symptoms were studied in rats by a rating scale modeled after the one reported by Quinton and Halliwell, and Weissman. Groups of five rats were placed in a covered plastic cage measuring approximately 26 cm.×42 cm.×16 cm. […] They were then treated 1, 5 and 24 hrs. later with d-amphetamine sulfate, 5 mg./kg. intraperitoneally (i.p.). […] On the basis of dose-response data after amphetamine it was possible to determine the effective dose of the compound necessary to antagonize or block the characteristic amphetamine behavior of cage movement for fifty percent of the rats tested (ED50). The time of rating chosen coincides with the peak action of amphetamine which is 60-80 min. after treatment with this agent.
Employing the above-described procedure, the following 4a,9b-trans compounds were tested for their ability to block the behavior effects of amphetamine, the results being reported as the ED50 in mg./kg. at the indicated times: [drawing 31]
A. The following results were obtained on the mixture of diastereomers for those compounds wherein R contains a secondary alcohol group and on the single diastereomer of the other 4a, 9b-trans hexahydro-pyrido-indoles.
B. The results of tests in which compounds of the invention reported in Part A, above are compared with the corresponding δ-substituted-5-aryl-1,2,3,4-tetrahydropyrido[4,3-b]indoles of U.S. Pat. No. 4,001,263 are summarized below. For each pair the results obtained on the prior art compound (a) are given first and the results for the compound of the invention (b) are given second. Where indicated the test compound was also administered orally (p.o.) and tests were carried out for 48 hours.
C. Test results expressed as micrograms/kilograms, obtained on the diastereomers αβ and γδ separated in Example 13 and each of the enantiomers α, β, γ and δ resolved by the procedure of Example 14 are shown below. In each case the compounds are of the formula
The tests were carried out for 72 hours.

[2] = molecular target: dopamine receptors (Rattus norvegicus, UniProt P61169); experiment: Inhibition of 3H-spiroperidol binding to dopamine receptors; set-up: species or system rat (Sprague-Dawley CD males); conditions: rat corpus striatum; 0.5 nM 3H-spiroperidol; 10 min at 37° C.; hydrochloride salts
Sequence of dopamine receptors (P61169 whole entry): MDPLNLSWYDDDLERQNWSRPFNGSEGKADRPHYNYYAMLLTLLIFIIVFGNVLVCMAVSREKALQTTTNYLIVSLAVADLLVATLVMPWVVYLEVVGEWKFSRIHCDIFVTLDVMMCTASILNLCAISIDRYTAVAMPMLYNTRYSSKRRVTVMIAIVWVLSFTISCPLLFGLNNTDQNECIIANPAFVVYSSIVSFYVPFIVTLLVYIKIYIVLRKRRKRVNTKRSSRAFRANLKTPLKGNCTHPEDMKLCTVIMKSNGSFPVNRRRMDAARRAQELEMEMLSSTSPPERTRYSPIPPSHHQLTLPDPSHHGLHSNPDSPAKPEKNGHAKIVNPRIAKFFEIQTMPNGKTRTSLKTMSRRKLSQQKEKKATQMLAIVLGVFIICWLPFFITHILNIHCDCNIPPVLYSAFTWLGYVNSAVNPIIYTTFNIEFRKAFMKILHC

[3] = sc, 1 h, Part A, 1 hr, test compound s.c. (method), read-out: ED50 (mg./kg.) 1 Hr.
[4] = sc, 5 h, Part A, 5 hr, test compound s.c. (method), read-out: ED50 (mg./kg.) 5 Hr.
[5] = sc, 24 h, Part A, 24 hrs, test compound s.c. (method), read-out: ED50 (mg./kg.) 24 Hrs.
[6] = sc, 1 h, read-out: ED50 (mg./kg.) 1 Hr.
[7] = sc, 5 h, read-out: ED50 (mg./kg.) 5 Hr.
[8] = ip, 1 h, Part B, 1 hr, i.p., read-out: ED50 (mg./kg.) 1 Hr.
[9] = ip, 5 h, Part B, 5 hrs, i.p., read-out: ED50 (mg./kg.) 5 Hrs.
[10] = ip, 24 h, Part B, 24 hrs, i.p., read-out: ED50 (mg./kg.) 24 Hrs.

In the case of `OC(CCCN1CC[C@@H]2[C@@H](C1)c1cc(F)ccc1N2c1ccc(F)cc1)c1ccccc1` (relative stereo), the ED50 [1, 3] is reported as 0.1 to 0.32 mg/kg, the ED50 [1, 4] is reported as 0.1 to 0.32 mg/kg and the ED50 [1, 5] is reported as under 0.32 mg/kg.
In the case of `c1ccc(CCCN2CC[C@@H]3[C@@H](C2)c2ccccc2N3c2ccccc2)cc1` (relative stereo) [X1=H, Y1=H, R=C6 H5 (CH2)3, reference compound], the ED50 [1, 3] is reported as 3.2 to 10 mg/kg, the ED50 [1, 4] is reported as 3.2 to 10 mg/kg and the ED50 [1, 5] is reported as over 10 mg/kg.
`OC(CCCN1CC[C@@H]2[C@@H](C1)c1cc(F)ccc1N2c1ccc(F)cc1)c1ccc(F)cc1` (relative stereo) [αβγδ, dl-trans-8-Fluoro-5-(p-fluorophenyl)-2-[4-hydroxy-4-(p-fluorophenyl)butyl]-2,3,4,4a,5,9b-hexahydro-1H-pyrido[4,3-b]indole hydrochloride] showed an ED50 ([1]; sc, 1 h, Part C, 1 hr, s.c. (method), read-out: ED50 (micrograms/kilograms) 1 Hr.) of 0.032 to 0.1 mg/kg, an ED50 ([1]; sc, 5 h, Part C, 5 hrs, s.c. (method), read-out: ED50 (micrograms/kilograms) 5 Hrs.) of 0.032 to 0.1 mg/kg and an ED50 ([1]; sc, 24 h, Part C, 24 hrs, s.c. (method), read-out: ED50 (micrograms/kilograms) 24 Hrs.) of 0.032 to 0.1 mg/kg. The IC50 [2] was 21 nM.
In the case of `COc1ccc(C(O)CCCN2CCC3C(C2)c2ccccc2N3c2ccccc2)cc1` (stereo not shown), the ED50 [1, 3] is reported as 0.1 to 0.32 mg/kg, the ED50 [1, 4] is reported as 0.1 to 0.32 mg/kg and the ED50 [1, 5] is reported as about 1 mg/kg.
With `OC(CCCN1CCC2C(C1)c1cc(F)ccc1N2c1ccc(F)cc1)c1ccc(F)cc1` (single isomer, unassigned) [β, 8-fluoro-5-(p-fluorophenyl)-2-[4-hydroxy-4-(p-fluorophenyl)butyl]-2,3,4,4a,5,9b-hexahydro-1H-pyrido[4,3-b]indole hydrochloride] the IC50 [2] was 1800 nM.
With `OC(CCCN1CC[C@@H]2[C@@H](C1)c1ccccc1N2c1ccccc1)c1ccc(F)cc1` (relative stereo) the ED50 [1, 3] was 0.1 to 0.32 mg/kg, the ED50 [1, 4] was 0.1 to 0.32 mg/kg and the ED50 [1, 5] was 0.1 to 0.32 mg/kg.
Molecule `c1ccc(CN2CC[C@@H]3[C@@H](C2)c2ccccc2N3c2ccccc2)cc1` (relative stereo) [X1=H, Y1=H, R=C6 H5 CH2, dl-trans-2-benzyl-2,3,4,4a,5,9b-hexahydro-5-phenyl-1H-pyrido-[4,3-b]indole Hydrochloride, reference compound] has an ED50 [1, 3] of about 10 mg/kg, an ED50 [1, 4] of 3.2 to 32 mg/kg and an ED50 [1, 5] of over 3.2 mg/kg.
Work on `c1ccc(N2c3ccccc3[C@@H]3CNCC[C@H]32)cc1` (relative stereo) [X1=H, Y1=H, R=H, dl-trans-5-Phenyl-2,3,4,4a,5,9b-hexahydro-1H-pyrido[4,3-b]indole, reference compound] yielded an ED50 [1, 6] of 3.2 to 32 mg/kg, an ED50 [1, 7] of over 3.2 mg/kg and an ED50 ([1]; sc, 24 h, read-out: ED50 (mg./kg.) 24 Hrs.) of over 32 mg/kg.
With `OC(CCCN1CC[C@@H]2[C@@H](C1)c1ccccc1N2c1ccccc1)c1ccccc1` (relative stereo) the ED50 [1, 8] was 0.032 to 0.1 mg/kg, the ED50 [1, 9] was 0.032 to 0.1 mg/kg and the ED50 [1, 10] was 0.1 to 0.32 mg/kg. It also gave an ED50 [1, 3] of 0.032 to 0.1 mg/kg, an ED50 [1, 4] of 0.032 to 0.1 mg/kg and an ED50 [1, 5] of 0.1 to 0.32 mg/kg.
In the case of `OC(CCCN1CC[C@@H]2[C@@H](C1)c1cc(F)ccc1N2c1ccc(F)cc1)c1ccc(F)cc1` (relative stereo) [drawing 38], the ED50 [1, 8] is reported as 0.032 to 0.1 mg/kg, the ED50 [1, 9] is reported as 0.032 to 0.1 mg/kg and the ED50 [1, 10] is reported as 0.032 to 0.1 mg/kg. For the same molecule, the ED50 ([1]; ip, 48 h, Part B, 48 hrs, i.p., read-out: ED50 (mg./kg.) 48 Hrs.) was 0.1 to 0.32 mg/kg, the ED50 ([1]; po, 1 h, Part B, 1 hr, p.o., read-out: ED50 (mg./kg.) 1 Hr.) was 0.32 to 1 mg/kg and the ED50 ([1]; po, 5 h, Part B, 5 hrs, p.o., read-out: ED50 (mg./kg.) 5 Hrs.) was 0.1 to 0.32 mg/kg. For the same molecule, the ED50 ([1]; po, 24 h, Part B, 24 hrs, p.o., read-out: ED50 (mg./kg.) 24 Hrs.) was 0.1 to 0.32 mg/kg and the ED50 [1, 3] was 0.032 to 0.1 mg/kg.
In the case of `OC(CCCN1CCC2C(C1)c1cc(F)ccc1N2c1ccc(F)cc1)c1ccc(F)cc1` (single isomer, unassigned) [γ, 8-fluoro-5-(p-fluorophenyl)-2-[4-hydroxy-4-(p-fluorophenyl)butyl]-2,3,4,4a,5,9b-hexahydro-1H-pyrido[4,3-b]indole], the “ED50 (micrograms/kilograms) 1 Hr.” value ([1]; Part C, 1 hr, s.c. (method)) is reported as 180 micrograms/kilograms, the “ED50 (micrograms/kilograms) 5 Hrs.” value ([1]; Part C, 5 hrs, s.c. (method)) is reported as 32-100 micrograms/kilograms and the “ED50 (micrograms/kilograms) 24 Hrs.” value ([1]; Part C, 24 hrs, s.c. (method)) is reported as 32-100 micrograms/kilograms. The “ED50 (mg./kg.) 1 Hr.” value ([1]; 1 hr) was 0.178 mg/kg, the “ED50 (mg./kg.) 5 Hrs.” value ([1]; 5 hrs) was 0.045 mg/kg and the “ED50 (mg./kg.) 24 Hrs.” value ([1]; 24 hrs) was 0.018 mg/kg. For the same molecule, the “ED50 (mg./kg.) 48 Hrs.” value ([1]; 48 hrs) was “ca. 1 mg./kg” and the “ED50 (mg./kg.) 72 Hrs.” value [1] was over 1 mg/kg.
With `O=C(CCCN1CC[C@@H]2[C@@H](C1)c1ccccc1N2c1ccccc1)c1ccc(F)cc1` (relative stereo) the ED50 [1, 4] was 0.1 to 0.32 mg/kg.
`OC(CCCN1CC[C@@H]2[C@@H](C1)c1cc(F)ccc1N2c1ccc(F)cc1)c1ccc(F)cc1` (relative stereo) [αβ, dl trans-8-fluoro-5-(p-fluorophenyl)-2-[4-hydroxy-4-(p-fluorophenyl)butyl]-2,3,4,4a,5,9b-hexahydro-1H-pyrido[4,3-b]indole] was tested, and the IC50 [2] was 23 nM.
`O=C(CCCN1CC[C@@H]2[C@@H](C1)c1cc(F)ccc1N2c1ccc(F)cc1)c1ccc(F)cc1` (relative stereo) showed an ED50 [1, 8] of under 1 mg/kg, an ED50 [1, 9] of under 1 mg/kg and an ED50 [1, 10] of under 1 mg/kg. It also gave an ED50 [1, 3] of under 1 mg/kg, an ED50 [1, 4] of under 1 mg/kg and an ED50 [1, 5] of under 1 mg/kg.
In the case of `OC(CCCN1CCC2C(C1)c1cc(F)ccc1N2c1ccc(F)cc1)c1ccc(F)cc1` (single isomer, unassigned) [α, 8-fluoro-5-(p-fluorophenyl)-2-[4-hydroxy-4-(p-fluorophenyl)butyl]-2,3,4,4a,5,9b-hexahydro-1H-pyrido[4,3-b]indole], the “ED50 (micrograms/kilograms) 1 Hr.” value ([1]; Part C, 1 hr, s.c. (method)) is reported as 120 micrograms/kilograms, the “ED50 (micrograms/kilograms) 5 Hrs.” value ([1]; Part C, 5 hrs, s.c. (method)) is reported as 32-100 micrograms/kilograms and the “ED50 (micrograms/kilograms) 24 Hrs.” value ([1]; Part C, 24 hrs, s.c. (method)) is reported as 32-100 micrograms/kilograms. The “ED50 (mg./kg.) 1 Hr.” value ([1]; 1 hr) was 0.023 mg/kg, the “ED50 (mg./kg.) 5 Hrs.” value ([1]; 5 hrs) was 0.014 mg/kg and the “ED50 (mg./kg.) 24 Hrs.” value ([1]; 24 hrs) was 0.033 mg/kg. The “ED50 (mg./kg.) 72 Hrs.” value [1] was over 10 mg/kg.
With `OC(CCCN1CCC2C(C1)c1cc(F)ccc1N2c1ccc(F)cc1)c1ccc(F)cc1` (single isomer, unassigned) [δ, 8-fluoro-5-(p-fluorophenyl)-2-[4-hydroxy-4-(p-fluorophenyl)butyl]-2,3,4,4a,5,9b-hexahydro-1H-pyrido[4,3-b]indole] the “ED50 (micrograms/kilograms) 1 Hr.” value ([1]; Part C, 1 hr, s.c. (method)) was over 1000 micrograms/kilograms, the “ED50 (micrograms/kilograms) 5 Hrs.” value ([1]; Part C, 5 hrs, s.c. (method)) was 560 micrograms/kilograms and the “ED50 (micrograms/kilograms) 24 Hrs.” value ([1]; Part C, 24 hrs, s.c. (method)) was 320-1000 micrograms/kilograms. For the same molecule, the “ED50 (mg./kg.) 1 Hr.” value ([1]; 1 hr) was over 10 mg/kg, the “ED50 (mg./kg.) 5 Hrs.” value ([1]; 5 hrs) was 5.7 mg/kg and the “ED50 (mg./kg.) 24 Hrs.” value ([1]; 24 hrs) was over 10 mg/kg. The “ED50 (mg./kg.) 48 Hrs.” value ([1]; 48 hrs) was over 10 mg/kg and the “ED50 (mg./kg.) 72 Hrs.” value [1] was over 10 mg/kg.
Molecule `CCN1CCC2C(C1)c1ccccc1N2c1ccccc1` (stereo not shown) [X1=H, Y1=H, R=C2 H5, reference compound] has an ED50 [1, 6] of about 1 mg/kg and an ED50 [1, 7] of over 3.2 mg/kg.
